Where two headings read alike, the source gives them in different places.
Legend:
[1] = Octanol/water partition coefficient of radiolabeled gallium complexes; assay type: physicochemical; details: 1-octanol / isotonic Tris buffer pH 7.0
Experimental: Octanol/water partition coefficients were measured by vortex mixing 1 mL of 1-octanol and 1 mL of isotonic Tris buffer (pH 7.0) with a 1-5 μL sample of the radiolabeled gallium complex. Following centrifugation at >1200 g for 5 minutes, the octanol and aqueous phases were sampled and counted in an automatic well counter.

[2] = rat, i.v.; for % injected dose in heart, 1 min / % injected dose in heart, 2 h: preliminary studies; for Heart/Blood / Heart/Liver / Heart/Lungs: ratio
Experimental: The gallium-67 complexes are prepared by ligand exchange from gallium-67 chloride, employing the tris(acetylacetonato)gallium(III) complex as an intermediate. The Ga-67 acetylacetonate in ethanol is reacted with the chelating ligand or ligand precursor at elevated temperature to form rapidly the desired gallium radiopharmaceutical. […] The biodistribution of several radiopharmaceuticals was determined in rats following intravenous injection using techniques previously described (M. A. Green, Nuclear Medicine and Biology 14:59-61, 1987; E. John and M. A. Green, J. Medicinal Chemistry, 33:1764-1770, 1990).
Under ether anesthesia, 1 to 3 μCi (0.1-0.2 mL) of no-carrier-added Ga-67 compound was administered by bolus injection into the femoral vein of male Sprague-Dawley rats. The ether anesthetized rats were sacrificed by decapitation at given time intervals post-injection, organs of interest were removed, weighed, and the gallium-67 activity counted. The biodistribution was calculated as a percentage of the injected dose per gram of tissue and percentage of injected dose per organ for each sample.

In the case of “^67 GaL^+ L = [(4-deaSal)2 DM-BAPEN, ^67 GaL^+ L = [bis(diethylaminosalicylaldimino)-N,N'-bis(2,2'-dimethyl-3-aminopropyl)ethylenediamine]]”, the “log P” value [1] is reported as 2.84, the “% Injected Dose per Gram Tissue, Blood” value ([2]; 1 min) is reported as 1.91 ± 0.22 % Injected Dose per Gram Tissu and the “% Injected Dose per Gram Tissue, Brain” value ([2]; 1 min) is reported as 0.05 ± 0.01 % Injected Dose per Gram Tissu. For the same compound, the “% Injected Dose per Gram Tissue, Heart” value ([2]; 1 min) was 0.85 ± 0.09 % Injected Dose per Gram Tissu, the “% Injected Dose per Gram Tissue, Kidney (one)” value ([2]; 1 min) was 4.85 ± 0.75 % Injected Dose per Gram Tissu and the “% Injected Dose per Gram Tissue, Liver” value ([2]; 1 min) was 4.91 ± 0.36 % Injected Dose per Gram Tissu. The “% Injected Dose per Gram Tissue, Lungs” value ([2]; 1 min) was 4.23 ± 0.68 % Injected Dose per Gram Tissu, the “% Injected Dose per Gram Tissue, Spleen” value ([2]; 1 min) was 1.61 ± 0.44 % Injected Dose per Gram Tissu and the “% Injected Dose per Organ, Blood” value ([2]; 1 min) was 30.59 ± 3.45 % Injected Dose per Organ. For the same compound, the “% Injected Dose per Organ, Brain” value ([2]; 1 min) was 0.08 ± 0.02 % Injected Dose per Organ, the “% Injected Dose per Organ, Heart” value ([2]; 1 min) was 0.66 ± 0.06 % Injected Dose per Organ and the “% Injected Dose per Organ, Kidney (one)” value ([2]; 1 min) was 4.25 ± 0.52 % Injected Dose per Organ. The “% Injected Dose per Organ, Liver” value ([2]; 1 min) was 47.04 ± 6.53 % Injected Dose per Organ, the “% Injected Dose per Organ, Lungs” value ([2]; 1 min) was 5.30 ± 0.23 % Injected Dose per Organ and the “% Injected Dose per Organ, Spleen” value ([2]; 1 min) was 1.12 ± 0.34 % Injected Dose per Organ. For the same compound, the “% injected dose in heart, 1 min” value ([2]; 1 min) was 0.66 ± 0.06 % injected dose, the “% Injected Dose per Gram Tissue, Blood” value ([2]; 15 min) was 0.30 ± 0.04 % Injected Dose per Gram Tissu and the “% Injected Dose per Gram Tissue, Brain” value ([2]; 15 min) was 0.02 ± 0.01 % Injected Dose per Gram Tissu. The “% Injected Dose per Gram Tissue, Heart” value ([2]; 15 min) was 0.57 ± 0.05 % Injected Dose per Gram Tissu, the “% Injected Dose per Gram Tissue, Kidney (one)” value ([2]; 15 min) was 5.55 ± 0.50 % Injected Dose per Gram Tissu and the “% Injected Dose per Gram Tissue, Liver” value ([2]; 15 min) was 4.78 ± 1.20 % Injected Dose per Gram Tissu. The “% Injected Dose per Gram Tissue, Lungs” value ([2]; 15 min) was 2.06 ± 0.21 % Injected Dose per Gram Tissu, the “% Injected Dose per Gram Tissue, Spleen” value ([2]; 15 min) was 3.15 ± 0.45 % Injected Dose per Gram Tissu and the “% Injected Dose per Organ, Blood” value ([2]; 15 min) was 5.08 ± 0.71 % Injected Dose per Organ. The “% Injected Dose per Organ, Brain” value ([2]; 15 min) was 0.00 ± 0.00 % Injected Dose per Organ, the “% Injected Dose per Organ, Heart” value ([2]; 15 min) was 0.46 ± 0.04 % Injected Dose per Organ and the “% Injected Dose per Organ, Kidney (one)” value ([2]; 15 min) was 4.79 ± 0.38 % Injected Dose per Organ. The “% Injected Dose per Organ, Liver” value ([2]; 15 min) was 50.24 ± 11.08 % Injected Dose per Organ, the “% Injected Dose per Organ, Lungs” value ([2]; 15 min) was 2.71 ± 0.22 % Injected Dose per Organ and the “% Injected Dose per Organ, Spleen” value ([2]; 15 min) was 2.29 ± 0.42 % Injected Dose per Organ. The “% Injected Dose per Gram Tissue, Blood” value ([2]; 120 min) was 0.06 ± 0.01 % Injected Dose per Gram Tissu, the “% Injected Dose per Gram Tissue, Brain” value ([2]; 120 min) was 0.00 ± 0.00 % Injected Dose per Gram Tissu and the “% Injected Dose per Gram Tissue, Heart” value ([2]; 120 min) was 0.47 ± 0.02 % Injected Dose per Gram Tissu. The “% Injected Dose per Gram Tissue, Kidney (one)” value ([2]; 120 min) was 5.28 ± 0.32 % Injected Dose per Gram Tissu, the “% Injected Dose per Gram Tissue, Liver” value ([2]; 120 min) was 0.96 ± 0.14 % Injected Dose per Gram Tissu and the “% Injected Dose per Gram Tissue, Lungs” value ([2]; 120 min) was 1.02 ± 0.13 % Injected Dose per Gram Tissu. For the same compound, the “% Injected Dose per Gram Tissue, Spleen” value ([2]; 120 min) was 2.89 ± 0.21 % Injected Dose per Gram Tissu, the “% Injected Dose per Organ, Blood” value ([2]; 120 min) was 1.06 ± 0.20 % Injected Dose per Organ and the “% Injected Dose per Organ, Brain” value ([2]; 120 min) was 0.02 ± 0.01 % Injected Dose per Organ. For the same compound, the “% Injected Dose per Organ, Heart” value ([2]; 120 min) was 0.40 ± 0.04 % Injected Dose per Organ, the “% Injected Dose per Organ, Kidney (one)” value ([2]; 120 min) was 5.17 ± 0.19 % Injected Dose per Organ and the “% Injected Dose per Organ, Liver” value ([2]; 120 min) was 11.06 ± 2.46 % Injected Dose per Organ. The “% Injected Dose per Organ, Lungs” value ([2]; 120 min) was 1.31 ± 0.07 % Injected Dose per Organ, the “% Injected Dose per Organ, Spleen” value ([2]; 120 min) was 2.09 ± 0.18 % Injected Dose per Organ and the “% injected dose in heart, 2 h” value [2] was 0.40 ± 0.04 % injected dose. The Heart/Blood ([2]; 1 min) was 0.45 ± 0.04, the Heart/Liver ([2]; 1 min) was 0.17 ± 0.03 and the Heart/Lungs ([2]; 1 min) was 0.20 ± 0.02. It also gave a Heart/Blood ([2]; 15 min) of 1.94 ± 0.33, a Heart/Liver ([2]; 15 min) of 0.13 ± 0.04 and a Heart/Lungs ([2]; 15 min) of 0.28 ± 0.04. It also gave a Heart/Blood ([2]; 120 min) of 8.06 ± 1.62, a Heart/Liver ([2]; 120 min) of 0.50 ± 0.07 and a Heart/Lungs ([2]; 120 min) of 0.46 ± 0.07.
For `COc1cc([O-])c(C=NCCNCCNCCN=Cc2c([O-])cc(OC)cc2OC)c(OC)c1.[67Ga+3]` [(4,6-MeO2 Sal)2 TETA, ^67 GaL^+ L = [bis(4,6-dimethoxysalicylaldimino)-N,N'-triethylene-tetraamine]], the “log P” value [1] was 0.24, the “% Injected Dose per Gram Tissue, Blood” value ([2]; 1 min) was 1.90 ± 0.56 % Injected Dose per Gram Tissu and the “% Injected Dose per Gram Tissue, Brain” value ([2]; 1 min) was 0.05 ± 0.01 % Injected Dose per Gram Tissu. The “% Injected Dose per Gram Tissue, Heart” value ([2]; 1 min) was 0.76 ± 0.04 % Injected Dose per Gram Tissu, the “% Injected Dose per Gram Tissue, Kidney (one)” value ([2]; 1 min) was 4.36 ± 0.27 % Injected Dose per Gram Tissu and the “% Injected Dose per Gram Tissue, Liver” value ([2]; 1 min) was 1.88 ± 0.15 % Injected Dose per Gram Tissu. The “% Injected Dose per Gram Tissue, Lungs” value ([2]; 1 min) was 0.97 ± 0.03 % Injected Dose per Gram Tissu, the “% Injected Dose per Gram Tissue, Spleen” value ([2]; 1 min) was 0.35 ± 0.02 % Injected Dose per Gram Tissu and the “% Injected Dose per Organ, Blood” value ([2]; 1 min) was 19.26 ± 2.97 % Injected Dose per Organ. For the same compound, the “% Injected Dose per Organ, Brain” value ([2]; 1 min) was 0.07 ± 0.01 % Injected Dose per Organ, the “% Injected Dose per Organ, Heart” value ([2]; 1 min) was 0.55 ± 0.04 % Injected Dose per Organ and the “% Injected Dose per Organ, Kidney (one)” value ([2]; 1 min) was 3.83 ± 0.31 % Injected Dose per Organ. The “% Injected Dose per Organ, Liver” value ([2]; 1 min) was 16.90 ± 1.70 % Injected Dose per Organ, the “% Injected Dose per Organ, Lungs” value ([2]; 1 min) was 1.17 ± 0.23 % Injected Dose per Organ and the “% Injected Dose per Organ, Spleen” value ([2]; 1 min) was 0.22 ± 0.01 % Injected Dose per Organ. The “% injected dose in heart, 1 min” value ([2]; 1 min) was 0.55 ± 0.04 % injected dose, the “% Injected Dose per Gram Tissue, Blood” value ([2]; 15 min) was 0.71 ± 0.08 % Injected Dose per Gram Tissu and the “% Injected Dose per Gram Tissue, Brain” value ([2]; 15 min) was 0.03 ± 0.01 % Injected Dose per Gram Tissu. For the same compound, the “% Injected Dose per Gram Tissue, Heart” value ([2]; 15 min) was 0.53 ± 0.06 % Injected Dose per Gram Tissu, the “% Injected Dose per Gram Tissue, Kidney (one)” value ([2]; 15 min) was 2.35 ± 0.41 % Injected Dose per Gram Tissu and the “% Injected Dose per Gram Tissue, Liver” value ([2]; 15 min) was 2.42 ± 0.25 % Injected Dose per Gram Tissu. For the same compound, the “% Injected Dose per Gram Tissue, Lungs” value ([2]; 15 min) was 0.51 ± 0.05 % Injected Dose per Gram Tissu, the “% Injected Dose per Gram Tissue, Spleen” value ([2]; 15 min) was 0.18 ± 0.02 % Injected Dose per Gram Tissu and the “% Injected Dose per Organ, Blood” value ([2]; 15 min) was 9.32 ± 1.38 % Injected Dose per Organ. The “% Injected Dose per Organ, Brain” value ([2]; 15 min) was 0.04 ± 0.01 % Injected Dose per Organ, the “% Injected Dose per Organ, Heart” value ([2]; 15 min) was 0.36 ± 0.03 % Injected Dose per Organ and the “% Injected Dose per Organ, Kidney (one)” value ([2]; 15 min) was 1.89 ± 0.40 % Injected Dose per Organ. For the same compound, the “% Injected Dose per Organ, Liver” value ([2]; 15 min) was 20.33 ± 1.11 % Injected Dose per Organ, the “% Injected Dose per Organ, Lungs” value ([2]; 15 min) was 0.50 ± 0.05 % Injected Dose per Organ and the “% Injected Dose per Organ, Spleen” value ([2]; 15 min) was 0.11 ± 0.02 % Injected Dose per Organ. For the same compound, the “% Injected Dose per Gram Tissue, Blood” value ([2]; 120 min) was 0.03 ± 0.01 % Injected Dose per Gram Tissu, the “% Injected Dose per Gram Tissue, Brain” value ([2]; 120 min) was 0.01 ± 0.01 % Injected Dose per Gram Tissu and the “% Injected Dose per Gram Tissue, Heart” value ([2]; 120 min) was 0.28 ± 0.05 % Injected Dose per Gram Tissu. The “% Injected Dose per Gram Tissue, Kidney (one)” value ([2]; 120 min) was 0.51 ± 0.10 % Injected Dose per Gram Tissu, the “% Injected Dose per Gram Tissue, Liver” value ([2]; 120 min) was 0.83 ± 0.15 % Injected Dose per Gram Tissu and the “% Injected Dose per Gram Tissue, Lungs” value ([2]; 120 min) was 0.08 ± 0.02 % Injected Dose per Gram Tissu. For the same compound, the “% Injected Dose per Gram Tissue, Spleen” value ([2]; 120 min) was 0.06 ± 0.01 % Injected Dose per Gram Tissu, the “% Injected Dose per Organ, Blood” value ([2]; 120 min) was 0.34 ± 0.02 % Injected Dose per Organ and the “% Injected Dose per Organ, Brain” value ([2]; 120 min) was 0.01 ± 0.01 % Injected Dose per Organ. The “% Injected Dose per Organ, Heart” value ([2]; 120 min) was 0.19 ± 0.03 % Injected Dose per Organ, the “% Injected Dose per Organ, Kidney (one)” value ([2]; 120 min) was 0.42 ± 0.04 % Injected Dose per Organ and the “% Injected Dose per Organ, Liver” value ([2]; 120 min) was 6.90 ± 1.07 % Injected Dose per Organ. The “% Injected Dose per Organ, Lungs” value ([2]; 120 min) was 0.10 ± 0.01 % Injected Dose per Organ, the “% Injected Dose per Organ, Spleen” value ([2]; 120 min) was 0.04 ± 0.01 % Injected Dose per Organ and the “% injected dose in heart, 2 h” value [2] was 0.19 ± 0.03 % injected dose. The Heart/Blood ([2]; 1 min) was 0.53 ± 0.04, the Heart/Liver ([2]; 1 min) was 0.41 ± 0.04 and the Heart/Lungs ([2]; 1 min) was 0.79 ± 0.05. For the same compound, the Heart/Blood ([2]; 15 min) was 0.74 ± 0.03, the Heart/Liver ([2]; 15 min) was 0.22 ± 0.01 and the Heart/Lungs ([2]; 15 min) was 1.03 ± 0.20. For the same compound, the Heart/Blood ([2]; 120 min) was 10.29 ± 2.64, the Heart/Liver ([2]; 120 min) was 0.34 ± 0.05 and the Heart/Lungs ([2]; 120 min) was 3.49 ± 0.37.

Reference: patent US5324502A, “Radiopharmaceuticals for imaging the heart” (priority 1992, dated 1994)
